Data: US20060004086A1, “Method of reducing Abeta42 and treating diseases” (Mayo Foundation for Medical Education and Research, priority 2000, published 2006)
Like-named read-outs stand apart in the source and are kept apart here.

Columns and labels:
Aβ42 secretion [1] = experiment: Primary in vitro screen, CHO-APP695NL,I,his cells, end-specific Aβ40 and Aβ42 ELISAs; type: cell-based, Chinese hamster; conditions: for activity at 100 µM / activity at 10 µM: Cricetulus griseus, 6 h; for selective reduction of Aβ42 levels in the primary screen: 10 μM or 100 μM, classification on a 20% change
Method: Aβ40 and Aβ42 levels in culture supernatants were determined for each time points using ELISA.
In a primary screen, the effects of NSAIDs on Aβ42 secretion by a CHO cell line that expressed APP(CHO-APP695NL,I,his) were examined. Duplicate cell cultures were treated with (a) a vehicle, (b) 10 μM of NSAID, or (c) 100 μM of NSAID.
To determine Aβ40 and Aβ42 levels, six-hour culture supernatants taken from cells grown in a single well of a twenty-four-well plate were used in end-specific Aβ40 and Aβ42 ELISAs (Suzuki, et al. (1994) Sci 264:[…]). Aβ40 and Aβ42 levels of cultures treated with NSAID were compared with those of cultures treated with the vehicle alone. […] NSAIDs that caused either selective reduction of Aβ42 levels or reduction in both Aβ40 and Aβ42 levels are subjected to a secondary screen.

[2] = system: brain Aβ42 levels in Tg2576 mice; experiment: Acute oral dosing of three-month-old Tg2576 mice, brain Aβ ELISA; type: in vivo, mouse
Method: NSAIDs were dissolved in an appropriate vehicle. Dimethyl sulfoxide (DMSO), ethanol, and ethyl acetate are some examples. The NSAID solution was mixed with Kool-Aid and administered orally using a medicine dropper. […] At two hours after the final doses were administered, animals were sacrificed, and SDS soluble Aβ40 and Aβ42 were analyzed using ELISA.
Three month old mice have high levels of soluble Aβ in the brain but no Aβ deposition (see Hsiao et al. (1996) Science 274:99-102). […] Brain levels of SDS-soluble Aβ40 and Aβ42 were measured using ELISA.
Compounds were administered orally.

Aβ42 production = Aβ42 production in APP695-transfected H4 cells; type: cell-based, human; conditions: for Aβ42 levels lowered by: 100 μM
Method: In a tertiary screen, Aβ production, sAPP production, and toxicity in a human H4 neuroglioma cell line that expressed APP are examined for all FDA-approved NSAIDs and novel NSAIDs that selectively reduce Aβ42 levels. Three doses of each NSAID are tested. The first is a dose that is expected to cause maximum reduction of Aβ42 levels. The second dose is one that reduces Aβ42 levels by 50% of the maximum value, while the third dose is one that reduces Aβ42 levels by 10-20% of the maximum value.

Aβ42 secretion [3] = experiment: Aβ40/Aβ42 ELISA of culture supernatants, CHO cells expressing APP751; type: cell-based, Chinese hamster; conditions: CHO cells expressing APP751; concentrations up to 400 μM
Method: Cell cultures were maintained in standard cell culture media supplemented with 10% fetal bovine serum and 100 U/mL penicillin/streptomycin (Life Technologies Inc., Germany).
For analyses of Aβ secretion, APP processing, and notch cleavage, cells were cultured in serum-containing media and pretreated overnight with a specific NSAID. The next day, media were changed and cultures were treated with the same NSAID for another 24 hours.
Aβ was detected by sandwich enzyme-linked immunosorbent assay (ELISA) as described by Murphy et al. (2000) J Biol Chem 275:26277-84. Following NSAID treatment, culture supernatants were collected, and cell debris was removed by centrifugation. Complete protease inhibitor cocktail (Roche Molecular Biochemicals, IN, USA) was added to the media and Aβ40 and Aβ42 levels were quantified using end-specific Aβ ELISAs. All measurements were performed in duplicate.
The effect of sulindac sulfone on Aβ42 secretion was examined. Sulindac sulfone is an oxidation product of the pro-drug sulindac. […] Cell cultures were treated with increasing concentrations of sulindac sulfone. Aβ40 and Aβ42 levels in culture supernatants were analyzed using ELISA.
(§1) Aβ40 and Aβ42 levels in cell culture supernatants were analyzed using ELISA. Aβ42/Aβ40 ratios and total Aβ levels were normalized to values obtained from DMSO-treated cultures. […] NSAIDs were verified using NMR and mass spectrometry.

[4] = plasma concentration of the drug; cited from earlier work
Aβ42 secretion [5] = experiment: Non-selective and selective COX-inhibitors tested for effect on Aβ42 levels in cell cultures (Table 1 summary); type: cell-based; conditions: cell cultures, cell line and concentration not stated
Method: All measurements were performed in duplicate.
as §1

[6] = 100 μM, six-hour culture supernatants, read-out: % Control % Aβ42
[7] = 100 μM, six-hour culture supernatants, read-out: % Control Aβ40
[8] = 100 μM, six-hour culture supernatants, read-out: % Control Aβ42
[9] = six-hour culture supernatants, read-out: % Control % Aβ42
[10] = six-hour culture supernatants, read-out: % Control Aβ40
[11] = six-hour culture supernatants, read-out: % Control Aβ42
[12] = Tg2576 mice, three month-old, 50 mg/kg/day orally for three days, SDS-soluble, mean ± SD
[13] = Tg2576 mice, treatment for three days, 50 mg/kg/day
[14] = 100 μM, six-hour culture supernatants
[15] = concentration not given, six-hour culture supernatants

| Compound | activity at 100 µM (Aβ42 secretion [1]; [6]) | activity at 100 µM (Aβ42 secretion [1]; [7]) | activity at 100 µM (Aβ42 secretion [1]; [8]) | activity at 10 µM (Aβ42 secretion [1]; [9]) | activity at 10 µM (Aβ42 secretion [1]; [10]) | activity at 10 µM (Aβ42 secretion [1]; [11]) | other results |
| --- | --- | --- | --- | --- | --- | --- | --- |
| CC(C(=O)O)c1ccc(-c2ccccc2)c(F)c1 (stereo not shown) [Flurbiprofen, flurbiprofen] |  |  |  |  |  |  | activity at 100 µM (Aβ42 secretion [1]; read-out: % Control % Aβ42): 80%; activity at 100 µM (Aβ42 secretion [1]; read-out: % Control Aβ40): 93%; activity at 100 µM (Aβ42 secretion [1]; read-out: % Control Aβ42): 70%; brain Aβ42 levels ([2]; three-month old Tg2576 mice, 100 mg/kg/day orally for three days, compared with vehicle): lower Aβ42 levels |
| CN1C(C(=O)Nc2ccccn2)=C(O)c2ccccc2S1(=O)=O [Piroxicam] | 75% | 142% | 101% |  |  |  |  |
| Cc1ccc(Cl)c(Nc2ccccc2C(=O)O)c1Cl [Meclofenamic acid, meclofenamic acid] |  |  |  | 37% | 39% | 13% | selective reduction of Aβ42 levels in the primary screen (Aβ42 secretion [1]): selectively reduced Aβ42 levels; selective reduction of Aβ42, time course (Aβ42 secretion [1]; CHO-APP695NL,I,his cells treated for six, twelve, or twenty-four hours): detectable at six hours; Brain levels of Aβ40 [2, 12]: 2932 ± 289 fmol/gm; Brain levels of Aβ42 [2, 12]: 679 ± 343 fmol/gm; % Aβ42 in brain ([2]; Tg2576 mice, three month-old, 50 mg/kg/day orally for three days, mean ± SD): 18.6 ± 8.7 %; Aβ40 levels in the brain [2, 13]: no change; reduction in Aβ42 levels in the brain [2, 13]: approximately 30% |
| Cc1cc(NC(=O)C2=C(O)c3ccccc3S(=O)(=O)N2C)no1 [Isoixicam] |  |  |  |  |  |  | % Control % Aβ42 (Aβ42 secretion [1]; [14]): 103%; % Control Aβ40 (Aβ42 secretion [1]; [14]): 109%; % Control Aβ42 (Aβ42 secretion [1]; [14]): 112% |
| Oc1ccc(C=Cc2cc(O)cc(O)c2)cc1 [Resveratrol] |  |  |  | 130% | 75% | 107% |  |
| C[C@H](C(=O)O)c1ccc(-c2ccccc2)c(F)c1 [S-flurbiprofen] |  |  |  |  |  |  | levels of Aβ40 production (Aβ42 production): not altered; Aβ42 levels lowered by (Aβ42 production): 58% |
| O=C(O)c1ccccc1Nc1cccc(C(F)(F)F)c1 [Flufenamic Acid, flufenamic acid] |  |  |  | 70% | 99% | 64% | selective reduction of Aβ42 levels in the primary screen (Aβ42 secretion [1]): selectively reduced Aβ42 levels |
| O=C(O)CCC(=O)c1ccc(-c2ccccc2)cc1 [Fenbufen] | 107% | 100% | 109% |  |  |  |  |
| CC1=C(CC(=O)O)c2cc(F)ccc2/C1=C\c1ccc(S(C)(=O)=O)cc1 [Sulindac Sulfone, sulindac sulfone] |  |  |  |  |  |  | % Control % Aβ42 (Aβ42 secretion [1]; [15]): 92%; % Control Aβ40 (Aβ42 secretion [1]; [15]): 109%; % Control Aβ42 (Aβ42 secretion [1]; [15]): 97%; Aβ42/Aβ40 ratios (Aβ42 secretion [3]): no changes in Aβ42/Aβ40 ratios were observed |
| Cc1c(Cl)cccc1Nc1ccccc1C(=O)O [Tolfenamic Acid, tolfenamic acid] | 110% | 84% | 95% |  |  |  | selective reduction of Aβ42 levels in the primary screen (Aβ42 secretion [1]): did not |
| Cc1ccc(-c2cc(C(F)(F)F)nn2-c2ccc(S(N)(=O)=O)cc2)cc1 [Celecoxib, celecoxib] |  |  |  |  |  |  | Plasma [4]: 0.015 µM |
| CC(C(=O)O)c1ccc(-c2ccccc2)c(F)c1 (racemic) [Flurbiprofen, flurbiprofen] |  |  |  |  |  |  | levels of Aβ40 production (Aβ42 production): not altered; Aβ42 levels lowered by (Aβ42 production): 50% |
| O=C(c1ccccc1)c1ccc2n1CCC2C(=O)O (stereo not shown) [Ketorlolac] |  |  |  | 142% | 84% | 131% |  |
| Cc1cccc(Nc2ccccc2C(=O)O)c1C [Mefenamic Acid, mefenamic acid] | 72% | 116% | 78% |  |  |  | selective reduction of Aβ42 levels in the primary screen (Aβ42 secretion [1]): selectively reduced Aβ42 levels |
| O=C(O)c1cc([N+](=O)[O-])ccc1NCCCc1ccccc1 [NPPB, 5-nitro-2-(3-phenylpropylamino)benzoic acid] |  |  |  | 66% | 81% | 48% |  |
| O=C(O)Cc1ccccc1Nc1c(Cl)cccc1Cl [Diclofenac] | 100% | 88% | 87% |  |  |  | Plasma [4]: 6.1 µM; total Aβ levels (Aβ42 secretion [5]): did not affect |
